Data as given in patent EP1247803A2, “Indolinone compounds suitable for modulation of protein kinases” (Sugen, Inc., priority 1996, dated 1998).

Legend:
[1] = molecular target: T1, EGFR (Homo sapiens, UniProt P00533); assay: EGFR ELISA assay (in vitro kinase activity, EGFR captured from A431 cell lysate); assay type: biochemical; design: concentration or dose not given beside the values
T1 construct: Add 7 ug A431 cell lysate per well (EGFR source); endogenous in cells; host or cells: A431
Summary of the method: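 EGFR from A431 lysate was captured on anti-EGFR antibody-coated plates and preincubated with compounds for 30 min. Autophosphorylation ran 5 min with 3 uM ATP and 5 mM MnCl2 (final), stopped with 20 mM EDTA. Phosphotyrosine was detected by anti-pTyr ELISA with ABTS/H2O2, read at 410 nm.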

[2] = test system: MET; assay: MET biochemical kinase assay; design: species or system human; concentration or dose not given beside the values
Summary of the method: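 Colorimetric signal from an HRP-linked anti-phosphotyrosine antibody with TMB measures phosphate incorporated into immobilised MET. The receptor is pulled from lysates by a polyclonal antibody against its cytoplasmic domain, then reacts in ATP- and metal-containing buffer with test compound.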

[3] = molecular target: PDGF-R (Homo sapiens, UniProt P09619); assay: PDGF-R ELISA; assay type: cell-based
Source text: A PDGF-R ELISA is described in International Patent Publication No. WO 96/40116, published December 19, 1996 by Tang et al.

T1 sequence (P00533 25-1210): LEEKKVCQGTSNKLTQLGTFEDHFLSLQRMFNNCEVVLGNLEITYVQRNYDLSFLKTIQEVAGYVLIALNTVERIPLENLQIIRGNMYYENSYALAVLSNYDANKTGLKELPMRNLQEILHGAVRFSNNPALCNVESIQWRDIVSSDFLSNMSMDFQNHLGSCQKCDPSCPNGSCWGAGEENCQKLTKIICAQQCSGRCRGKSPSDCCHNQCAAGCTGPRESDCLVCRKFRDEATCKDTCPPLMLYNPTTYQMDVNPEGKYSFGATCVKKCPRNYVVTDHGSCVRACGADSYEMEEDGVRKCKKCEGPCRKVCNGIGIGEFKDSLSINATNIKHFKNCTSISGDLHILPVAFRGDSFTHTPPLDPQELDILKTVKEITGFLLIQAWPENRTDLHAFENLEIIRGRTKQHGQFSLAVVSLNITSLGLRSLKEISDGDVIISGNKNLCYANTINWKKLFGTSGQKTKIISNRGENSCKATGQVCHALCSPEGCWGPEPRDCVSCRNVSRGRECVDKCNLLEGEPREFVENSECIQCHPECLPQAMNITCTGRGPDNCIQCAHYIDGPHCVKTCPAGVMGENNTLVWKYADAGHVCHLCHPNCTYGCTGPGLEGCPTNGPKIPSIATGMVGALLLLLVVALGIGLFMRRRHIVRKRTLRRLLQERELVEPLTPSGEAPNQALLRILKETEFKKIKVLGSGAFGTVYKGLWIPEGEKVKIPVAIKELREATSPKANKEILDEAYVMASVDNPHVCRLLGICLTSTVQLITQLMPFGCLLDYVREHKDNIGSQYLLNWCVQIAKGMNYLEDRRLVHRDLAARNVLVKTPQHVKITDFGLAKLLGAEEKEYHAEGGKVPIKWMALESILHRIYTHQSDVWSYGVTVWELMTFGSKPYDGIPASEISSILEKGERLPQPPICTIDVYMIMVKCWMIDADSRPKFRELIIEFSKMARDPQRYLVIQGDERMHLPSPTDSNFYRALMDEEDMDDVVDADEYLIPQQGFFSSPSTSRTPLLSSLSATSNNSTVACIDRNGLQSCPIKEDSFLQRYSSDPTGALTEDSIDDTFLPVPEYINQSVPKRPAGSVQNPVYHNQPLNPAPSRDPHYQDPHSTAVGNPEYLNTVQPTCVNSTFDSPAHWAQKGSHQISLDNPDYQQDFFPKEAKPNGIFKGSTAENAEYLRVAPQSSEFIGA
Chain of PDGF-R (P09619 33-1106, species assumed): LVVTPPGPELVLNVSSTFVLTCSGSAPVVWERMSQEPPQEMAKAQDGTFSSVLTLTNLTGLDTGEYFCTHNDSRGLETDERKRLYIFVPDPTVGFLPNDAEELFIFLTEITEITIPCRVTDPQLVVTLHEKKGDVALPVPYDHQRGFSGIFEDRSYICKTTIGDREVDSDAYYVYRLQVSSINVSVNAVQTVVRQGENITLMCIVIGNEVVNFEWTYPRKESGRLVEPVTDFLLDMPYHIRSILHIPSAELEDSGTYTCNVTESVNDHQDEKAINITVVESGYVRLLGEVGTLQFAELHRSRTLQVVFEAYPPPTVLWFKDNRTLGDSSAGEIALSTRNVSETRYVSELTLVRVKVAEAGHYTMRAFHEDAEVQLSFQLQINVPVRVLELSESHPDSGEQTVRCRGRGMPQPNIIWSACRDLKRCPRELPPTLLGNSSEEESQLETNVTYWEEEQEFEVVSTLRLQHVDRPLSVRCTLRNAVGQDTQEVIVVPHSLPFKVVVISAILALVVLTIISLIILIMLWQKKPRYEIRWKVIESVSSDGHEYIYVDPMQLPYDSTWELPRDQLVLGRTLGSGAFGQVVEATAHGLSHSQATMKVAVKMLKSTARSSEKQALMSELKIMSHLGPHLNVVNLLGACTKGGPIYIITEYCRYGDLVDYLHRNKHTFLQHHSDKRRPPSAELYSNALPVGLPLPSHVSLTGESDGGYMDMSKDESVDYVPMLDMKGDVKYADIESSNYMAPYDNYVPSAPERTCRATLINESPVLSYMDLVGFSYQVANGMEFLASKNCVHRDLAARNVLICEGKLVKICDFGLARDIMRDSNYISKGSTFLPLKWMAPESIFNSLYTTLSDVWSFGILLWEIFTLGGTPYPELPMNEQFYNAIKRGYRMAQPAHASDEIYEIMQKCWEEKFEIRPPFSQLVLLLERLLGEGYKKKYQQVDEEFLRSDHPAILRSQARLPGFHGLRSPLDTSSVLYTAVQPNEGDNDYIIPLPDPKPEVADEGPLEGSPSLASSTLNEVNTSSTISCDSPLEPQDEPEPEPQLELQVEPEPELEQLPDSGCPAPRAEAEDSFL

SMILES | Biochem EGFR %Inhibition [1] | Met Kinase % Inhibition [2] | PDGF Kinase %Inhibition [3]
Cn1cccc1C=C1C(=O)Nc2c(Br)cc(Br)cc21 [10717/A04] | 29.0% | 37.4% | 
O=C1Nc2ccc(S(=O)(=O)Nc3ccc(C(F)(F)F)cc3)cc2C1=Cc1ccc[nH]1 [10717/E09] | -5.8% | 19.2% | 
COc1cccc(O)c1C=C1C(=O)Nc2ccc(S(=O)(=O)Nc3ccc(C(F)(F)F)cc3)cc21 [10717/E10] | -6.1% | 35.9% | 
Cc1[nH]c(C=C2C(=O)Nc3ccc(S(=O)(=O)Nc4ccc(C(F)(F)F)cc4)cc32)c(Br)c1Br [10717/E11] | 44.9% | 75.1% | 
CCOc1ccccc1C=C1C(=O)Nc2ccc(S(=O)(=O)N3CCOCC3)cc21 [10717/F02] | 6.2% | 30.4% | 
O=C1Nc2ccc(S(=O)(=O)N3CCOCC3)cc2C1=Cc1cccs1 [10717/F03] | -4.7% | 42.8% | 
Cn1cccc1C=C1C(=O)Nc2ccc(S(=O)(=O)N3CCOCC3)cc21 [10717/F04] | -15.7% | 11.4% | 
O=C1Nc2ccc(S(=O)(=O)N3CCOCC3)cc2C1=Cc1ccc(F)cc1 [10717/F05] | -20.1% | 21.5% | 
O=C1Nc2ccc(S(=O)(=O)N3CCOCC3)cc2C1=Cc1c[nH]c2ccccc12 [10717/F06] | -22.8% | 49.0% | 
O=C1Nc2ccc(CCCl)cc2C1=Cc1cccc(Br)c1 [10723/G10] | -4.1% | 40.7% | -27.8%
CC(C)(C)c1cc(C=C2C(=O)Nc3ccc(CCCl)cc32)c(O)c(C(C)(C)C)c1 [10723/G11] | -35.0% | 39.4% | -7.7%
CN(C)c1ccc(C=C2C(=O)Nc3c(Br)cc(Br)cc32)c2ccccc12 [10724/A02] | 36.7% | 61.7% | 6.3%
O=C1Nc2c(Br)cc(Br)cc2C1=Cc1ccc(O)c([N+](=O)[O-])c1 [10724/A03] | 17.2% | 30.7% | 0.1%
O=C1Nc2c(Br)cc(Br)cc2C1=Cc1ccc([N+](=O)[O-])c(O)c1 [10724/A04] | 15.4% | 62.6% | 5.0%
O=C1Nc2c(Br)cc(Br)cc2C1=Cc1cc2c3c(c1O)CCCN3CCC2 [10724/A05] | 20.3% | 68.4% | 5.0%
CC(C)c1cc(C=C2C(=O)Nc3c(Br)cc(Br)cc32)cc(C(C)C)c1O [10724/A06] | 1.4% | 46.8% | 30.7%
O=C1Nc2c(Br)cc(Br)cc2C1=Cc1cc2ccccc2o1 [10724/A07] | 18.3% | 58.7% | 16.1%
O=C1Nc2c(Br)cc(Br)cc2C1=Cc1cccn1-c1ccc(Cl)cc1 [10724/A09] | 1.6% | 37.5% | 19.6%
CCc1ccc(C=C2C(=O)Nc3c(Br)cc(Br)cc32)o1 [10724/A10] | 40.0% | 83.8% | 28.6%

SMILES | Biochem EGFR %Inhibition [1] | Met Kinase % Inhibition [2] | PDGF Kinase %Inhibition [3]
Cc1csc2sc(C=C3C(=O)Nc4c(Br)cc(Br)cc43)c(C)c12 [10724/A11] | -16.6% | 27.2% | 29.3%
O=C1Nc2ccc(I)cc2C1=Cc1ccc(O)c([N+](=O)[O-])c1 [10724/B03] | 14.9% | 51.0% | 14.7%
CC(C)c1cc(C=C2C(=O)Nc3ccc(I)cc32)cc(C(C)C)c1O [10724/B06] | 30.9% | 52.1% | 43.2%
O=C1Nc2ccc(I)cc2C1=Cc1cc2ccccc2o1 [10724/B07] | 44.0% | 57.9% | 27.2%
O=C1Nc2ccc(I)cc2C1=Cc1cccn1-c1ccc(Cl)cc1 [10724/B09] | 8.7% | 43.8% | 25.8%
CCc1ccc(C=C2C(=O)Nc3ccc(I)cc32)o1 [10724/B10] | 76.2% | 95.0% | 9.8%
Cc1csc2sc(C=C3C(=O)Nc4ccc(I)cc43)c(C)c12 [10724/B11] | -23.2% | 43.0% | 23.0%
Cc1c(Br)ccc2c1C(=Cc1ccc(N(C)C)c3ccccc13)C(=O)N2 [10724/C02] | 53.6% | 40.7% | -9.0%
Cc1c(Br)ccc2c1C(=Cc1ccc(O)c([N+](=O)[O-])c1)C(=O)N2 [10724/C03] | 16.5% | 68.7% | 4.3%
Cc1c(Br)ccc2c1C(=Cc1ccc([N+](=O)[O-])c(O)c1)C(=O)N2 [10724/C04] | 13.2% | 84.3% | 24.4%
Cc1c(Br)ccc2c1C(=Cc1cc3c4c(c1O)CCCN4CCC3)C(=O)N2 [10724/C05] | -0.8% | 67.7% | 20.3%
Cc1c(Br)ccc2c1C(=Cc1cc(C(C)C)c(O)c(C(C)C)c1)C(=O)N2 [10724/C06] | -2.4% | 15.4% | 34.9%
Cc1c(Br)ccc2c1C(=Cc1cc3ccccc3o1)C(=O)N2 [10724/C07] | 9.4% | 14.2% | 22.3%
Cc1c(Br)ccc2c1C(=Cc1cccn1-c1ccc(Cl)cc1)C(=O)N2 [10724/C09] | 1.0% | 5.3% | 20.3%
CCc1ccc(C=C2C(=O)Nc3ccc(Br)c(C)c32)o1 [10724/C10] | 13.8% | 91.2% | 27.2%
Cc1c(Br)ccc2c1C(=Cc1sc3scc(C)c3c1C)C(=O)N2 [10724/C11] | 0.7% | 4.9% | 23.0%
CNS(=O)(=O)c1ccc2c(c1)C(=Cc1ccc(N(C)C)c3ccccc13)C(=O)N2 [10724/D02] | 40.5% | 37.5% | -9.6%
CNS(=O)(=O)c1ccc2c(c1)C(=Cc1ccc(O)c([N+](=O)[O-])c1)C(=O)N2 [10724/D03] | 2.5% | 18.2% | -15.2%
CNS(=O)(=O)c1ccc2c(c1)C(=Cc1ccc([N+](=O)[O-])c(O)c1)C(=O)N2 [10724/D04] | 5.4% | 70.5% | -1.3%
